This note sets out measurements from patent US20060211705A1, “'N-(2-chloro-6-methylphenyl)-2-[[6-[4-(2-hydroxyethyl)-1-piperazinyl]-2-methyl-4-pyrimidinyl]amino]-5-thiazolecarboxamides metabolites” (priority 2005, published 2006).

This data set is described as follows: Radioactive metabolites in plasma, urine and feces after single oral dose of [14C] compound (I) to humans. The following applies: for % Distribution of radioactive metabolites in pooled plasma, Human (2 h): oral 100-mg [14C] compound (I), plasma 2 h; for Metabolites in Urine (0-168 hr), Human, % Dose / Metabolites in Urine (0-168 hr), Human, % Rad / Metabolites in Feces (0-168 hr), Human, % Dose / Metabolites in Feces (0-168 hr), Human, % Rad: oral 100-mg; for Metabolites in Urine (0-168 hr), Human, % Dose / Metabolites in Urine (0-168 hr), Human, % Rad: pooled urine 0-168 hr; for Metabolites in Feces (0-168 hr), Human, % Dose / Metabolites in Feces (0-168 hr), Human, % Rad: pooled fecal extracts 0-168 hr. It is filed as in vivo, human. On the procedure: Plasma samples were segregated by collection time and equal volumes of individual plasma samples at a given time point were combined for biotransformation profiling.
The C-14 label was on the carbon-2 of the thiazole ring.
HPLC was performed on an Agilent 1100™ system equipped with binary pumps, autoinjector, and a column heater. A Phenomenex Synergy Polar-RP® column (4.6×250 mm, 5 micron) was used for metabolite separation. All HPLC analyses were performed at 1 mL/min flow rate at 35° C. The HPLC mobile phase consisted of (A) water with 0.1% formic acid and (B) acetonitrile with 0.1% formic acid.
Each fraction of column eluent was evaporated to dryness on a Savant Speed-Vac (Savant Instruments Inc., Holbrook, N.Y.) and counted for radioactivity with a Packard Top Count® microplate scintillation analyzer (Packard Biosciences, Downers Grove, Ill.).
The volumes of pooled plasma processed for HPLC analysis for rat, monkey and human ranged between 1.5 and 8.0 mL. Pooled plasma samples were extracted with methanol/acetonitrile (1:1) at a ratio of 2 volumes solvent to 1 volume of plasma. The mixtures were vortex mixed, sonicated for 5 min, and centrifuged at 3500 rpm for 10 min. The supernatants were transferred into new tubes. The remaining pellets were extracted two more times with 3 mL of methanol/acetonitrile (1:1). The supernatants were combined and evaporated to dryness in a Savant Speed-Vac (Savant Instruments, Inc., Holbrook, N.Y.). The residue was reconstituted into 0.35 to 0.45 mL of 30% acetonitrile in water, vortex mixed and centrifuged at 13000 rpm for 5 min (American Scientific Products Biofuge A centrifuge, Heraeus Sepatech GmbH, Germany). The supernatant was injected onto the HPLC for profiling. Aliquots of the reconstituted samples (30 μl) were also counted on the liquid scintillation counter (LSC) to determine the recovery of radioactivity.
The pooled monkey and human urine samples (3-5 mL) were extracted with 2 volumes of acetonitrile/acetone (1:1). The mixtures were vortex mixed, sonicated and centrifuged at 3500 rpm for 10 min. The supernatants were evaporated to dryness. The residue was suspended in 0.3-0.5 mL of 30% acetonitrile in water and centrifuged at 13000 rpm for 5 min. Aliquots of the supernatants were injected onto the HPLC or analyzed by LSC for radioactivity recovery. Pooled urine samples from BDC monkeys and rats were centrifuged at 13000 rpm for 10 min and injected onto the HPLC for profiling without further treatment.
The amount of fecal homogenate used for analysis was 0.20, 0.19 and 0.51 g for rat, monkey and human, respectively. Each pooled fecal homogenate was extracted by addition of 3 volumes of acetonitrile/methanol (1:1) to 1 volume of fecal homogenate and mixed on a vortex mixer. The mixture was sonicated for 5 min and then centrifuged at 3000 rpm for 10 min. The supernatants were removed and saved. The extraction was repeated two additional times and the supernatants were combined and evaporated to dryness on a Savant Speed-Vac. […] An aliquot of the supernatant was injected onto the HPLC or analyzed by LSC for radioactivity recovery.
The LC/MS system used for analysis of plasma, urine, bile, and fecal samples consisted of an Agilent 1100™ HPLC system connected to a Finnigan LCQ-DecaXP mass spectrometer. Samples were analyzed using positive electrospray ionization. The capillary temperature used for analysis was 320° C., and the nitrogen gas flow rate, spray current, and voltages were adjusted to give maximum sensitivity. The HPLC conditions were described in section 3.3.1.
Counts per min (CPM) were determined on a Packard TopCount NXT microplate scintillation and luminescence counter. For each injection, the average CPM value (2-4 CPM) obtained from fractions between 2-3 min (column void) in the chromatogram was subtracted from the CPM value of each fraction. Biotransformation profiles were prepared by plotting the background subtracted CPM values against time-after-injection.

On to `Cc1nc(Nc2ncc(C(=O)Nc3c(C)cccc3Cl)s2)cc(N2CC[N+]([O-])(CCO)CC2)n1` [M5 (III)], for which the “% Distribution of radioactive metabolites in pooled plasma, Human (2 h)” value (“% Distribution” for short) came out at 4.5%; the “Metabolites in Urine (0-168 hr), Human, % Dose” value (“Metabolites in Urine … % Dose” for short) is given as 1.4%; the “Metabolites in Urine (0-168 hr), Human, % Rad” value (from here on “Metabolites in Urine … % Rad”) is on record as 39.8%.
As to `Cc1nc(Nc2ncc(C(=O)Nc3c(C)cc(O)cc3Cl)s2)cc(N2CCN(CCO)CC2)n1` [M20 (V)], the “% Distribution” value was found to be 12.5%; the “Metabolites in Feces (0-168 hr), Human, % Dose” value (“Metabolites in Feces … % Dose” for short) is on record as 31.2%; the “Metabolites in Feces (0-168 hr), Human, % Rad” value (“Metabolites in Feces … % Rad” below) amounted to 36.6%; the “Metabolites in Urine … % Dose” value was determined as 0.2%. In addition, the “Metabolites in Urine … % Rad” value came out at 4.1%.
The corresponding values for `Cc1nc(Nc2ncc(C(=O)Nc3c(C)cccc3Cl)s2)cc(N2CCN(CC(=O)O)CC2)n1` [M6 (IV), 2-(4-(6-(5-((2-Chloro-6-methylphenyl)carbamoyl)thiazol-2-ylamino)-2-methylpyrimidin-4-yl)piperazin-1-yl)acetic acid] are 3.6%, 8.9%, 10.4%, 0.05% and 1.3%.
The corresponding values for `Cc1nc(Nc2ncc(C(=O)Nc3c(Cl)cccc3CO)s2)cc(N2CCN(CCO)CC2)n1` [M24 (VI), N-(2-chloro-6-(hydroxymethyl)phenyl)-2-(6-(4-(2-hydroxyethyl)piperazin-1-yl)-2-methylpyrimidin-4-ylamino)thiazole-5-carboxamide] are 3.1%, 4.0%, 4.7%, 0.2% and 6.0%.
Turning to `Cc1nc(Nc2ncc(C(=O)Nc3c(C)cccc3Cl)s2)cc(N2CCNCC2)n1` [M4 (II)], the “Metabolites in Feces … % Dose” value was found to be 2.6%; the “Metabolites in Feces … % Rad” value was determined as 3.1%; the “Metabolites in Urine … % Dose” value came to 0.05%; the “Metabolites in Urine … % Rad” value is listed as 1.3%.
On to `Cc1nc(Nc2ncc(C(=O)Nc3c(C)cccc3Cl)s2)cc(N2CCN(CCO)CC2)n1` [Parent (I), N-(2-Chloro-6-methylphenyl)-2-[[6-[4-(2-hydroxyethyl)-1-piperazinyl]-2-methyl-4-pyrimidinyl]amino]-5-thiazolecarboxamide], for which the “% Distribution” value worked out at 25.5%; the “Metabolites in Feces … % Dose” value is reported as 19.1%; the “Metabolites in Feces … % Rad” value stood at 22.4%; the “Metabolites in Urine … % Dose” value worked out at 0.1%. In addition, the “Metabolites in Urine … % Rad” value came to 3.6%.
